Tested on: ddy-mice
Experiment: Antihypoxic activity (survival time of mice under reduced pressure, 190 mmHg)
Type: in vivo
Settings: Mus musculus, ip, injected intraperitoneally usually 30 minutes before the test, desiccator at 190 mmHg, effective = mean survival time above 140 sec and p<0.05 vs control
Description: Six ddy-mice weighing 20 - 27 g were used. Test compound was dissolved in saline or suspended in 0.5 % carboxymethylcellulose and injected intraperitoneally usually 30 minutes before the test at a dosage of 0.1 ml per 10 g of the bodyweight. Two mice were placed in a desiccator, the inside pressure of which was lowered to 190 mmHg within 2 to 3 seconds, and the survival time as well as the time interval between the start of the evacuation and the cessation of respiration was determined. The survival time of the mice which lived longer than 300 seconds was taken as 300 sec.

CN(C)CCCOC1(Cc2ccccc2)CCCCCC1 [Bencyclane, reference compound]
minimal effective dose: < 30 mg/kg

NC(=O)c1cccc(NC(=O)C(Cc2ccccc2)c2ccccc2)c1 (stereo not drawn) [Example 1, alpha-benzyl-N-(3-carbamoylphenyl)benzeneacetamide]
minimal effective dose: < 10 mg/kg

O=C(Nc1cccc(O)c1)C(Cc1ccccc1)c1ccccc1 (stereo not shown) [Example 7]
minimal effective dose: < 10 mg/kg

NC(=O)c1cccc(NC(=O)C(CCCc2ccccc2)c2ccccc2)c1 (stereo not shown) [Example 18]
minimal effective dose: < 10 mg/kg

O=C(Nc1cccc(O)c1)C(CCCc1ccccc1)c1ccccc1 (stereo not shown) [Example 23]
minimal effective dose: < 10 mg/kg

NS(=O)(=O)c1ccc(NC(=O)C(CCc2ccccc2)c2ccc(Cl)cc2)cc1 (stereo not shown) [Example 38]
minimal effective dose: < 10 mg/kg

Cc1ccc(C(CCc2ccccc2)C(=O)Nc2ccc(S(N)(=O)=O)cc2)cc1 (stereo not shown) [Example 40]
minimal effective dose: < 10 mg/kg

CCC(C(=O)Nc1ccc(O)cc1)c1ccccc1 (stereo not shown) [Known product (see page 2), reference compound]
minimal effective dose: > 30 mg/kg

COc1ccc(Cc2nccc3cc(OC)c(OC)cc23)cc1OC [Papaverine, reference compound]
minimal effective dose: < 30 mg/kg

CC[C@]12CCCN3CCc4c(n(c5ccccc45)[C@@](O)(C(=O)OC)C1)[C@@H]32 [Vincamine, reference compound]
minimal effective dose: < 30 mg/kg

Reference: patent EP0184822A2, “Novel anilide derivatives of substituted arylacetic acids” (SUMITOMO PHARMACEUTICALS COMPANY, LIMITED, priority 1984, dated 1986)
